Results published in patent US20160220602A1, “USE OF CHINESE MEDICINE PREPARATION IN PREPARING DRUG FOR PREVENTING AND/OR TREATING CROHN'S DISEASE” (TASLY PHARMACEUTICAL GROUP CO., LTD., priority 2013, published 2016).

Key:
[1] = system: TNBS-induced SD rat Crohn's disease model; test: DAI score in TNBS-caused Crohn's disease rat model; assay type: in vivo, SD rats; conditions: TNBS model rats, 100 mg/kg
Protocol: Grouping: experiment was carried out by using two ways of intracolonic and intragastric administrations. […] There were 10 rats each group. Method for establishing rat model: referring to Morris method, TNBS was used to induce the SD rat Crohn's disease model (abbreviated as “TNBS model”). 24 hours before modeling, the SD rats were fasted but water was given. […] The rats of blank control group were normally fed with free access to water and the same volume of normal saline was given in the same administration routes by referring to the dosage regime of aforementioned treatment groups. The rats of model group were administrated with the same volume of normal saline in the same administration routes. […] (1) General Indices: weight change and stool (e.g. fecal occult blood, bloody stool and diarrhea) was observed every day to calculate DAI (disease activity index) score. DAI score=(weight loss percentage+stool character fraction+hematochezia fraction)/3 [table]

[2] = system: IL-10; test: Serum IL-10 by ELISA, TNBS model rats; assay type: in vivo, SD rats; conditions: 100 mg/kg once per day, 21 days
Protocol: Grouping: experiment was carried out by using two ways of intracolonic and intragastric administrations. […] There were 10 rats each group. Method for establishing rat model: referring to Morris method, TNBS was used to induce the SD rat Crohn's disease model (abbreviated as “TNBS model”). 24 hours before modeling, the SD rats were fasted but water was given. […] The rats of blank control group were normally fed with free access to water and the same volume of normal saline was given in the same administration routes by referring to the dosage regime of aforementioned treatment groups. The rats of model group were administrated with the same volume of normal saline in the same administration routes. […] (2) Serum indices: after final administration, the testing rats were fasted but given water. 24 hours later, blood was gained from abdominal aorta. Serum IFN-γ, IL-1, IL-4, IL-10 and Gln in intestinal mucosa were determined by enzyme-linked immunosorbent assay (ELISA) in rats.

For `Nc1ccc(O)c(C(=O)O)c1` [mesalamine, Mesalamine], the “DAI score (Mean ± SD)” value ([1]; intracolonic, 0th day (1 day before model established)) was 0.000 ± 0.000, the “DAI score (Mean ± SD)” value ([1]; intracolonic, 2nd day) was 1.867 ± 0.571 and the “DAI score (Mean ± SD)” value ([1]; intracolonic, 3rd day) was 2.100 ± 0.754. The “DAI score (Mean ± SD)” value ([1]; intracolonic, 4th day) was 2.067 ± 0.7217, the “DAI score (Mean ± SD)” value ([1]; intracolonic, 5th day) was 1.733 ± 0.562 and the “DAI score (Mean ± SD)” value ([1]; intracolonic, 6th day) was 1.367 ± 0.532. The “DAI score (Mean ± SD)” value ([1]; intracolonic, 7th day) was 1.267 ± 0.467, the “DAI score (Mean ± SD)” value ([1]; intracolonic, 8th day) was 1.167 ± 0.360 and the “DAI score (Mean ± SD)” value ([1]; intracolonic, 9th day) was 1.067 ± 0.306. The “DAI score (Mean ± SD)” value ([1]; intracolonic, 10th day) was 1.000 ± 0.314, the “DAI score (Mean ± SD)” value ([1]; intracolonic, 11th day) was 0.933 ± 0.211 and the “DAI score (Mean ± SD)” value ([1]; intracolonic, 12th day) was 0.833 ± 0.236. For the same compound, the “DAI score (Mean ± SD)” value ([1]; intracolonic, 13th day) was 0.833 ± 0.236, the “DAI score (Mean ± SD)” value ([1]; intracolonic, 14th day) was 0.767 ± 0.353 and the “DAI score (Mean ± SD)” value ([1]; intracolonic, 15th day) was 0.733 ± 0.344. For the same compound, the “DAI score (Mean ± SD)” value ([1]; intragastric, 0th day (1 day before model established)) was 0.000 ± 0.000, the “DAI score (Mean ± SD)” value ([1]; intragastric, 2nd day) was 1.519 ± 0.412 and the “DAI score (Mean ± SD)” value ([1]; intragastric, 3rd day) was 1.481 ± 0.380. The “DAI score (Mean ± SD)” value ([1]; intragastric, 4th day) was 1.333 ± 0.333, the “DAI score (Mean ± SD)” value ([1]; intragastric, 5th day) was 1.111 ± 0.333 and the “DAI score (Mean ± SD)” value ([1]; intragastric, 6th day) was 1.037 ± 0.261. The “DAI score (Mean ± SD)” value ([1]; intragastric, 7th day) was 1.000 ± 0.236, the “DAI score (Mean ± SD)” value ([1]; intragastric, 8th day) was 0.963 ± 0.309 and the “DAI score (Mean ± SD)” value ([1]; intragastric, 9th day) was 0.889 ± 0.289. For the same compound, the “DAI score (Mean ± SD)” value ([1]; intragastric, 10th day) was 0.741 ± 0.324, the “DAI score (Mean ± SD)” value ([1]; intragastric, 15th day) was 0.481 ± 0.242 and the “DAI score (Mean ± SD)” value ([1]; intragastric, 16th day) was 0.481 ± 0.242. The “DAI score (Mean ± SD)” value ([1]; intragastric, 18th day) was 0.333 ± 0.236, the “DAI score (Mean ± SD)” value ([1]; intragastric, 19th day) was 0.259 ± 0.147 and the “DAI score (Mean ± SD)” value ([1]; intragastric, 20th day) was 0.222 ± 0.167. The “IL-10 serum content (Mean ± SD)” value ([2]; intracolonic) was 88.06 ± 10.47 pg/mL and the “IL-10 serum content (Mean ± SD)” value ([2]; intragastric) was 88.56 ± 16.77 pg/mL.
